“And” between values parts separate entries of the source, which are not always exact repeats. Identical values can stand only once. Like-named read-outs stand apart in the source and are kept apart here.
Columns and labels:
MDA-MB-231 (breast, ER−) = experiment: Human tumor cell line panel, sulforhodamine B; assay type: cell-based; settings: 48 hours, mean ± sd
DU145 (prostate) = experiment: Human tumor cell line panel, sulforhodamine B; assay type: cell-based; settings: DU-145, 48 hours, mean ± sd
physchem = settings: aqueous with cosolvent or surfactant or cyclodextrin
SK-OV-3 (ovary) = experiment: Human tumor cell line panel, sulforhodamine B; assay type: cell-based; settings: 48 hours, mean ± sd
T24 (bladder) = experiment: Human tumor cell line panel, sulforhodamine B; assay type: cell-based; settings: 48 hours, mean ± sd
HT-29 (colon) = experiment: Human tumor cell line panel, sulforhodamine B; assay type: cell-based; settings: 48 hours, mean ± sd
A-498 (kidney) = experiment: Human tumor cell line panel, sulforhodamine B; assay type: cell-based; settings: A498, 48 hours, mean ± sd
[1] = test system: mouse JC mammary adenocarcimona cell line growing subcutaneously in Balb/c mice
Procedure: The antitumor activity of the representative SK inhibitors were evaluated using a syngeneic tumor model that uses the mouse JC mammary adenocarcimona cell line growing subcutaneously in immunocompetent Balb/c mice (Lee et al., 2003, Oncol Res 14: 49).
In FIG. 1, Balb/c mice, 6-8 weeks old, were injected subcutaneously with 10^6 JC cells suspended in phosphate-buffered saline. The SK inhibitors Compounds 62 and 57 were dissolved in PEG400 and administered to mice every-other day at a dose of 100 mg/kg. Body weights and tumor volumes were monitored daily. In FIG. 1, tumor growth is expressed as the tumor volume relative to day 1 for each animal.

1025LU (melanoma) = experiment: Human tumor cell line panel, sulforhodamine B; assay type: cell-based; settings: 48 hours, mean ± sd
Panc-1 (pancreas) = experiment: Human tumor cell line panel, sulforhodamine B; assay type: cell-based; settings: 48 hours, mean ± sd
Hep-G2 (liver) = experiment: Human tumor cell line panel, sulforhodamine B; assay type: cell-based; settings: HepG2, 48 hours, mean ± sd
MCF-7 (breast, ER+) = experiment: Human tumor cell line panel, sulforhodamine B; assay type: cell-based; settings: MCF7, 48 hours, mean ± sd
[2] = test system: MCF-7 human breast adenocarcinoma cells; experiment: Cytotoxicity, SRB binding assay; assay type: cell-based; settings: MCF7, inhibition of cell proliferation, 48 h, read-out: MCF-7 IC50
Procedure, shortened: (§1)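 Cells exposed to varying compound doses for 48 h, then survival measured by sulforhodamine B staining. IC50 is the concentration giving 50% proliferation inhibition, in μM, as mean±sd of replicate trials.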

[3] = test system: MCF-10A non-transformed human breast epithelial cells; experiment: Cytotoxicity, SRB binding assay; assay type: cell-based; settings: inhibition of cell proliferation, 48 h, read-out: MCF-10A IC50
Procedure, shortened: as §1

Caco-2 (colon) = experiment: Human tumor cell line panel, sulforhodamine B; assay type: cell-based; settings: 48 hours, mean ± sd
recombinant human SK [4] = experiment: Inhibition of recombinant human SK, LC/MS/MS assay; assay type: biochemical; settings: 6 μg/ml compound
Procedure, shortened: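 Enzyme incubated with unlabeled sphingosine and ATP (1 mM, as in the radiometric format) for 30 min, then stopped and extracted with acetonitrile. S1P quantified by C8 reverse-phase HPLC–MS/MS against C17 sphingosine and C17 S1P internal standards using calibration curves.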

[5] = Oral pharmacokinetics in mice (PEG400); assay type: in vivo; settings: mouse, blood, 100 mg/kg oral gavage in PEG400, female Swiss-Webster mice
Procedure: Oral pharmacokinetic studies were performed on Compounds 62 and 57. Each compound was dissolved in PEG400 and administered to female Swiss-Webster mice at a dose of 100 mg/kg by oral gavage. Mice were anesthetized and blood was removed via cardiac puncture at 5 minutes, 30 minutes, 1, 2, and 8 hours. Concentrations of the test compounds were determined using liquid-liquid extraction, appropriate internal standards and reverse phase HPLC with UV detection. Control blood samples were run to identify compound-specific peaks. Pharmacokinetic parameters were calculated using the WINNONLIN analysis software package (Pharsight). Non-compartmental and compartmental models were tested, with the results shown in Table 7 derived from the best fit equations.

recombinant human SK [6] = experiment: Recombinant human SK assay with [3H]sphingosine; assay type: biochemical; settings: positive control
Procedure: An assay for identifying inhibitors of recombinant human SK has been established (French et al., 2003, Cancer Res 63: 5962). cDNA for human SK was subcloned into a pGEX bacterial expression vector, which results in expression of the enzyme as a fusion protein with glutathione-S-transferase, and the fusion protein is then purified on a column of immobilized glutathione. SK activity is measured by incubation of the recombinant SK with [^3H]sphingosine and 1 mM ATP under defined conditions, followed by extraction of the assay mixture with chloroform:methanol under basic conditions. […] Radioactivity in aliquots of the aqueous phase is then quantified as a measure of [^3H]S1P formation. There is a low background level of partitioning of [^3H]sphingosine into the aqueous phase, and addition of the recombinant SK greatly increases the formation of [^3H]S1P.

CN1CCCC1CCNC(=O)C12CC3CC(C1)CC(c1ccc(Cl)cc1)(C3)C2 (centres unmarked) [Compound 57, 3-(4-Chloro-phenyl)-adamantane-1-carboxylic acid [2-(1-methyl-pyrrolidin-2-yl)-ethyl]-amide]
IC50 (MDA-MB-231 (breast, ER−)): 12.5 ± 2.5 µM | IC50 (DU145 (prostate)): 8.7 ± 3.3 µM | solubility (physchem): ≥ 15000 µg/mL and 30000 µM to 40000 µM | IC50 (SK-OV-3 (ovary)): 9.2 ± 2.8 µM | IC50 (T24 (bladder)): 12.7 ± 2.8 µM | IC50 (HT-29 (colon)): 9.6 ± 4 µM | IC50 (A-498 (kidney)): 8 ± 3.5 µM | inhibition of tumor growth relative to controls ([1]; 100 mg/kg oral every-other day in PEG400): 78% | In vivo activity ([1]; JC tumor model, intraperitoneal (ip) or oral (po) administration): active - po | IC50 (1025LU (melanoma)): 7.2 ± 0.8 µM | IC50 (Panc-1 (pancreas)): 14.1 ± 6.3 µM | IC50 (Hep-G2 (liver)): 5 ± 1.8 µM | IC50 (MCF-7 (breast, ER+)): 12.1 ± 3.1 µM | IC50 [2]: 6 µM | IC50 [3]: 8 µM | IC50 (Caco-2 (colon)): 3.2 ± 2 µM | Recombinant SK (% inhibition) (recombinant human SK [4]): 30% | Cmax [5]: 3.8 µM | Tmax [5]: 2 h | half-life [5]: 19.3 h | AUC(0-inf) ([5]; read-out: AUC0→∞ (μM * h)): 111 µM·h | AUC(0-inf) ([5]; read-out: AUC0→∞ (μg * h/mL)): 45000 ng·h/mL

CCCCCCCCCCCCC/C=C/[C@@H](O)[C@H](CO)N(C)C [DMS, D-erythro-N,N-dimethylsphingosine]
concentration that completely inhibits SK activity (recombinant human SK [6]): above 25 μM

— patent US8557800B2, “Sphingosine kinase inhibitors” (Apogee Biotechnology Corporation, priority 2005, dated 2013)
